From patent US20020173491A1, “DAPD combination therapy with inosine monophosphate dehydrogenase inhibitor” (priority 2000, published 2002)
Like-named read-outs stand apart in the source and are kept apart here.

Key:
[1] = molecular target: HIV reverse transcriptase (HIV-RT) (Human immunodeficiency virus type 1 group M subtype B, UniProt P04585); settings: cited from earlier work
[2] = XTT based cytotoxicity assay, MT2; settings: human, MT2 T-cell line, MT2 cells
Protocol: The XTT (2,3-bis(2-methoxy-4-nitro-5-sulfoxyphenyl)-5[(phenylamino)carbonyl]-2H-tetrazolium hydroxide) assay is an in vitro colorimetric cyto-protection assay. Reduction of XTT by mitochondria dehydrogenases results in the cleavage of the tetrazolium ring of XTT, yielding orange formazan crystals, which are soluble in aqueous solution. The resultant orange solution was read in a spectrophotometer at a wavelength of 450nm. […] Cells were added to the plat at 3×10^4/well (MTX) and 2×10^5/well (PBMC) and the plates were incubated for 5 days at 37° C. in a 5% CO2 incubator (addition of the cells to the plate diluted the compound to a final high concentration of 1 mM). At the end of the 5-day incubation, XTT was added to each well and incubated at 37° C. for 3 hours followed by the addition of acidified isopropanol. The plate was read at 450 nm in a 96 well plate reader. A dose response curve was generated using the absorption values of cells grown in the absence of compound as 100% protection.
MPA was tested for cytotoxicity on the laboratory adapted T-cell line MT2 and in PBMCs using a XTT based assay. […] The resultant orange solution is read in a spectrophotometer at a wavelength of 450nm. […] The plate was read at 450 nm in a 96 well plate reader. […]

xxLAI strain of HIV-1 [3] = test: microbe, parasite or virus in culture; type: cell-based; settings: Human immunodeficiency virus 1, PBMC, 72 h
Protocol: In this assay, cell supernatants were incubated on microelisa wells coated with antibodies to HIV-1 p24 core antigen. Subsequently, anti-HIV-1 conjugate labeled with horseradish peroxidase was added. The labeled antibody bound to the solid phase antibody/antigen complexes previously formed. Addition of the tetramethylbenzidine substrate results in blue color formation. The color turned yellow when the reaction is stopped. The plates were then analyzed on a plate reader set at 490 nm. The absorbance is a direct measurement of the amount of HIV-1 produced in each well and a decrease in color indicates decreased viral production. […] PBMC were obtained from HIV-1 negative donors by banding on Ficoll gradients, stimulated with phytohemaglutinin (PHAP) for 48 hours prior to infection with HIV-1, and infected with virus for 4 hours at 37° C. at a MOI of 0.001. […] Plates were incubated for 3 days at 37° C. The concentration of virus in each well was determined using the NEN p24 assay. Using the absorption values of the cell controls as 100% protection and drug free, virus infected cells as 0% protection, a dose response curve is generated by plotting percent protection on the Y axis and drug concentration on the X axis. From this curve, EC50 values were determined.
Compound dilutions and assay conditions were as described above.
MPA was also tested for activity against the xxLAI strain of HIV-1 in PBMCs using a p24 based Elisa assay. In this assay, cell supernatants are incubated on microelisa wells coated with antibodies to HIV-1 p24 core antigen. Subsequently, anti-HIV-1 conjugate labeled with horse radish peroxidase is added. The labeled antibody binds to the solid phase antibody/antigen complexes previously formed. Addition of the tetramethylbenzidine substrate results in blue color formation. The color turns yellow when the reaction is stopped. The plates are then analyzed on a plate reader set at 490 nm. The absorbance is a direct measurement of the amount of HIV-1 produced in each well and a decrease in color indicates decreased viral production. Dilutions of MPA were made in cell culture media in a 96 well plate, the highest concentration of MPA tested was 1 μM. PBMC were obtained from HIV-1 negative donors by banding on Ficoll gradients, stimulated with phytohemaglutinin (PHAP) for 48 hours prior to infection with HIV-1, and infected with virus for 4 hours at 37° C. at a MOI of 0.001. Infected cells were seeded into 96 well plates containing 4-fold serial dilutions of MPA. Plates were incubated for 3 days at 37° C. The concentration of virus in each well was determined using the NEN p24 assay. Using the absorption values of the cell controls as 100% protection and drug free, virus infected cells as 0% protection, a dose response curve is generated by plotting % protection on the Y axis and drug concentration on the X axis. From this curve EC50 values were determined.
Compound dilutions and assay conditions were as described above. The concentrations of MPA used were 1, 0.5, 0.25, 0.1, and 0.01 μM.

xxLAI strain of HIV-1 [4] = test: microbe, parasite or virus in culture; type: cell-based; settings: compound alone, any of the concentrations tested (RBV up to 100 μM, MPA up to 1 μM)
Protocol: Triplicate samples of compound were tested. MT2 cells were infected with xxLAI at a multiplicity of infection (MOI) of 0.03 for 3 hours at 37° C. in 5% CO2. The infected cells were plated at 3.0×10^4/well into a 96 well plated containing drug dilutions and incubated for 5 days at 37° C. in CO2. […] This method has been modified into a susceptibility assay and has been used in a variety of in vitro antiviral tests and is readily adaptable to any system with a lytic virus (Weislow, O. S., et. al. 1989). Using the absorption values of the cell controls as 100% protection and no drug, virus infected cells as 0% protection, a dose response curve is generated by plotting % protection on the Y axis and drug concentration on the X axis. From this curve EC50 values were determined.
Assays were performed in the MT2 cell line as described above in the XXT sensitivity assay section.
MPA was tested for activity against the xxLAI strain of HIV-1 in the laboratory adapted cell line MT2. Dilutions of MPA were made in cell culture media in a 96 well plate; the highest concentration tested was 1 μM. Triplicate samples of compound were tested. MT2 cells were infected with xxLAI at a multiplicity of infection (MOI) of 0.03 for 3 hours at 37° C. in 5% CO2. The infected cells were plated at 3.0×10^4/well into a 96 well plated containing drug dilutions and incubated for 5 days at 37° C. in CO2. The antiviral activity of MPA was determined using the XTT assay described above. This method has been modified into a susceptibility assay and has been used in a variety of in vitro antiviral tests and is readily adaptable to any system with a lytic virus (Weislow, O. S., et. al. 1989). Using the absorption values of the cell controls as 100% protection and no drug, virus infected cells as 0% protection, a dose response curve is generated by plotting % protection on the Y axis and drug concentration on the X axis. From this curve EC50 values were determined.
The concentrations of MPA used were 1, 0.5, 0.25, 0.1, and 0.01 μM. Assays were performed in the MT2 cell line as described in section 3.1.

[5] = XTT based cytotoxicity assay, PBMC; type: cell-based; settings: human, PBMCs
Protocol: The XTT (2,3-bis(2-methoxy-4-nitro-5-sulfoxyphenyl)-5[(phenylamino)carbonyl]-2H-tetrazolium hydroxide) assay is an in vitro colorimetric cyto-protection assay. Reduction of XTT by mitochondria dehydrogenases results in the cleavage of the tetrazolium ring of XTT, yielding orange formazan crystals, which are soluble in aqueous solution. […] Cells were added to the plat at 3×10^4/well (MTX) and 2×10^5/well (PBMC) and the plates were incubated for 5 days at 37° C. in a 5% CO2 incubator (addition of the cells to the plate diluted the compound to a final high concentration of 1 mM). At the end of the 5-day incubation, XTT was added to each well and incubated at 37° C. for 3 hours followed by the addition of acidified isopropanol. The plate was read at 450 nm in a 96 well plate reader. A dose response curve was generated using the absorption values of cells grown in the absence of compound as 100% protection.
The XTT (2,3-bis(2-methoxy-4-nitro-5-sulfophenyl)-5[(phenylamino)carbonyl]-2H-tetrazolium hydroxide) assay is an in vitro colorimetric cyto-protection assay. Reduction of XTT by mitochondria dehydrogenases results in the cleavage of the tetrazolium ring of XTT, yielding orange formazan crystals, which are soluble in aqueous solution. […] The plate was read at 450 nm in a 96 well plate reader. […]

HCV = settings: ribavirin alone; cited from earlier work
[6] = read-out: EC50, HIV-1 replication in PBMCs, compound alone, p24, 3 days

| Compound | Ki [1] [nM] | CC50 at 5 days [2] [µM] | EC50 (xxLAI strain of HIV-1 [3]; [6]) [nM] | EC50 (xxLAI strain of HIV-1 [3]; read-out: median EC50, HIV-1 replication in PBMCs, compound alone, p24, 3 days) [nM] | activity against HIV-1 in MT2 cells (xxLAI strain of HIV-1 [4]) | CC50 at 5 days [5] [µM] | effect on serum levels of HCV-RNA (HCV) | patients with serum amino transferase levels reduced to normal (HCV) [%] |
| --- | --- | --- | --- | --- | --- | --- | --- | --- |
| Nc1nc2c(ncn2C2COC(COP(=O)(O)OP(=O)(O)OP(=O)(O)O)O2)c(=O)[nH]1 (stereo not drawn) [DXG-TP] | 19 | – | – | – | – | – | – | – |
| COc1c(C)c2c(c(O)c1C/C=C(\C)CCC(=O)O)C(=O)OC2 [MPA, 6-(4-hydroxy-6-methoxy-7-methyl-3-oxo-5-phthalanyl)-4-methyl-4-hexanoic acid] | – | 5.7 | 95 | 95 | not active | 4.5 | – | – |
| NC(=O)c1ncn([C@@H]2O[C@H](CO)[C@@H](O)[C@H]2O)n1 [RBV, 1-β-D-ribofuranosyl-1,2,4-triazole-3-carboxamide] | – | > 1000 | 20500 | – | not active | > 1000 | does not lower | 40 |
